Here are results for 13 molecules from patent US7589123B2, “Chemical compounds” (Phytopharm PLC, priority 2006, dated 2009).

Data set [1] deals with T1, TRPV1 receptor (Rattus norvegicus, UniProt O35433). As to the kind of experiment: TRPV1 receptor modulation in the rat vas deferens, EFS-induced contraction (Assay 1). To be noted: electrical field stimulation, read-out: Inhibition of EFS response relative to capsaicin. The method, then:
Wistar derived male rats (275±25 g) were suppressed by CO2 overexposure. The vas deferens was removed, placed in Krebs solution, pH 7.4 (composition in g/l: NaCl 6.89, KCl 0.35, CaCl2 0.277, KH2PO4 0.163, MgSO4.7H2O 0.296, NaHCO3 2.1 glucose 1.8) and excess fat and connective tissue removed. The portion of the vas deferens closest to the prostate was cut in half and each half was placed under 1 g tension in a 10 ml bath containing Krebs solution at 32° C. The tissue was contracted by electrical field stimulation (EFS; 60% of maximum stimulation, 0.015 Hz, 0.5 ms in duration) and contractile responses were measured.

The test system of data set [2] is histamine-induced contractions in guinea pig ileum. The data set can be described thus: Inhibition of histamine-induced contractions in guinea pig ileum (Assay 3). To be noted: Cavia porcellus, histamine 1.7 μM, read-out: Inhibition of histamine-induced contraction (%). In outline: (§1)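 Ileal strips from male Duncan Hartley guinea pigs were held at 1 g tension in 32° C oxygenated Krebs (pH 7.4) with isotonic transducers. After control contractions to 5-HT (2.6 μM) or histamine (1.7 μM), compound at 3 and 30 μM was added, its own effect noted, and agonist re-applied.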

Data set [3] has as its system 5-HT-induced contractions in guinea pig ileum. The data set can be described thus: Inhibition of 5-HT-induced contractions in guinea pig ileum (Assay 3). To be noted: Cavia porcellus, 5-HT 2.6 μM, read-out: Inhibition of 5-HT-induced contraction (%). The essentials:
as §1

The subject of data set [4] is α-smooth muscle actin (α-SMA) mRNA. The data set can be described thus: Anti-remodelling activity in human lung fibroblasts (HFL1): TGFβ-induced α-SMA mRNA (Assay 4). The data set is classed as cell-based. To be noted: Homo sapiens, HFL1 cells, TGFβ 10 ng/ml, 24 h, read-out: Inhibition of α-SMA mRNA synthesis (%). In outline: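 Real-time RT-PCR of α-SMA mRNA, GAPDH as reference, measured after 24 h exposure of low-serum-primed HFL1 cells to 10 ng/ml TGFβ with test compounds (3 and 30 μM) in 10% FBS medium. Readout is inhibition of TGFβ-driven α-SMA mRNA overexpression.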

Data set [5] deals with IL-1α-induced PGE2 release. The data set can be described thus: IL-1α-induced PGE2 release in human diploid lung fibroblasts (WI-38) (Assay 5). The data set is classed as cell-based. To be noted: Homo sapiens, WI-38 cells, IL-1α 1 nM, overnight. The essentials:
(§2)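 Cell viability was read by Alamar Blue fluorescence (530/590 nm) after 4 h at 37 °C, following an overnight 37 °C incubation of human lung fibroblasts with 1 nM IL-1α and compound (3 or 30 μM) in 10% FBS MEM, pH 7.3. Supernatant PGE2 was measured by radioimmunoassay to derive percent inhibition.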

In data set [6] the test system is WI-38 cells. As to the kind of experiment: Viability of WI-38 cells, Alamar Blue (Assay 5). The data set is classed as cell-based, human. In outline: as §2
A general note: The colour change of resazurin is a common sign of viable cells or microbes.

The target of data set [7] is T2, 5-lipoxygenase (Homo sapiens, UniProt P09917).
T2 construct: endogenous in cells; host or cells: human peripheral blood mononuclear leukocytes (PBMLs)
T2 sequence (P09917 1-674): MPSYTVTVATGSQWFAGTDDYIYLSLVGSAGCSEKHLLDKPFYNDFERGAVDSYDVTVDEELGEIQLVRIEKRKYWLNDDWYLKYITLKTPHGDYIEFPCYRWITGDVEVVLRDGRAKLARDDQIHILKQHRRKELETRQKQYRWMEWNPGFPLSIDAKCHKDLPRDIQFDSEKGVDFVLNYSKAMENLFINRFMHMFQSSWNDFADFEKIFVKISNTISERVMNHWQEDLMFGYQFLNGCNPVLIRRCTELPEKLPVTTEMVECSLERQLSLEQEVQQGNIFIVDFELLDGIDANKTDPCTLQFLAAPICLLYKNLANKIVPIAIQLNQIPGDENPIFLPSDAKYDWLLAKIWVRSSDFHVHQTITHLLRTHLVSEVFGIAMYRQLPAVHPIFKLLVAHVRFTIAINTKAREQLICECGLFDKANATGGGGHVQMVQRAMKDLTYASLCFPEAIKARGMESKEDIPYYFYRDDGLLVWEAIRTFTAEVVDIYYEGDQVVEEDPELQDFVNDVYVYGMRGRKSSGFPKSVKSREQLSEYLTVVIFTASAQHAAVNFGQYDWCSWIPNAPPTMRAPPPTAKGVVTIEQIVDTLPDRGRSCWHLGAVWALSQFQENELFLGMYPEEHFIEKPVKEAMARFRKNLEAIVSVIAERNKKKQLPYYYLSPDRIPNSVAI
As to the kind of experiment: 5-lipoxygenase activity (LTB4) in human peripheral blood mononuclear leukocytes (Assay 6). Type of data set: cell-based. To be noted: human PBMLs, A23187 30 μM, read-out: Inhibition of 5-LO (%). In outline:
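LTB4 in supernatant quantified by EIA after 15 min at 37° C. in HBSS, pH 7.4, where Ficoll-isolated human PBMLs (5×10^6) received ionophore A23187 (30 μM) and test compound (3 and 30 μM) or 0.1% DMSO vehicle.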

The target of data set [8] is T1, TRPV1 receptor. The data set can be described thus: TRPV1 modulation in DRG neurones: CGRP release in absence and presence of capsaicin (Assay 2). Type of data set: cell-based. On the set-up: The culture used for this experiment contained sensory neurones, Schwann cells and fibroblasts; endogenous in cells; host or cells: primary rat DRG sensory neurone culture (with Schwann cells and fibroblasts). To be noted: 20 min; for inhibition at 3 µM: 3 μM with capsaicin 1 μM; for inhibition at 3 µM / inhibition at 30 µM: −ve: inhibition, +ve: potentiation of capsaicin response, read-out: Effect of test compounds on capsaicin (1 μM)-induced CGRP release (%); for inhibition at 30 µM: 30 μM with capsaicin 1 μM; for Emax at 3 µM: test compound alone 3 μM; for Emax at 3 µM / Emax at 30 µM: rat DRG sensory neurones, read-out: CGRP release (% of capsaicin (1 μM) response); for Emax at 30 µM: test compound alone 30 μM.

T1 sequence (O35433 whole entry): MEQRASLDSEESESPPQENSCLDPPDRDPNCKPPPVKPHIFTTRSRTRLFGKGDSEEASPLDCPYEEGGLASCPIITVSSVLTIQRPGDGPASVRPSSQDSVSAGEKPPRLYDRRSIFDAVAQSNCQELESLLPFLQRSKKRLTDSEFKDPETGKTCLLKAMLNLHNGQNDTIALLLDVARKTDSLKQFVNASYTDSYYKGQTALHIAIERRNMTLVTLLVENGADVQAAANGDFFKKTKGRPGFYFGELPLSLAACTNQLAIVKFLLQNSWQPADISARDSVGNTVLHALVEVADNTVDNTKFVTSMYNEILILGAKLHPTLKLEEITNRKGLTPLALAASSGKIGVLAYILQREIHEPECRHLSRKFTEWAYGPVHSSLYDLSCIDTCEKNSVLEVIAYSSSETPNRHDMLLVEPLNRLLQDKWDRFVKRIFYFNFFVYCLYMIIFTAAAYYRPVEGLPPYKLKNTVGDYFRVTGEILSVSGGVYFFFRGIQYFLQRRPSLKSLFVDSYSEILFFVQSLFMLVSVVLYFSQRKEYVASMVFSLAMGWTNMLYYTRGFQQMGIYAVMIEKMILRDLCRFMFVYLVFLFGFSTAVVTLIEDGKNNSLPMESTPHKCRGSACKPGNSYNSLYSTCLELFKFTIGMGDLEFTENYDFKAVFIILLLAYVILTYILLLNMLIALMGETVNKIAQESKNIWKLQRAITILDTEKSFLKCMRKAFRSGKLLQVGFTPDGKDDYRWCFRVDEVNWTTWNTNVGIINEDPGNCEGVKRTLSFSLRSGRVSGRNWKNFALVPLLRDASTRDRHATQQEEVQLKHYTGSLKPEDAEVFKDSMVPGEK

On to `COc1cc(/C=C/C(=O)CC(=O)C2(C)CCCCC2)ccc1O` [Compound 42, (E)-5-(4-Hydroxy-3-methoxyphenyl)-1-(1-methylcyclohexyl)-pent-4-ene-1,3-dione], for which the Emax in data set [1] came to 6%.
Still for that read-out and setting: the result for `COc1cc(CCC(=O)CC(=O)C2(C)CCCCC2)ccc1O` [Compound 10, 5-(4-Hydroxy-3-methoxy-phenyl)-1-(1-methyl-cyclohexyl)-pentane-1,3-dione] reads 16%; that for `COc1cc(CCC(=O)CC(=O)CC(C)(C)C)ccc1O` [Compound 3, 7,7-Dimethyl-1-(4-hydroxy-3-methoxyphenyl)-octane-3,5-dione], 63%.
In the case of `COc1cc(/C=C/C(=O)CC(=O)CC(C)(C)C)ccc1O` [Compound 35, (E)-7,7-Dimethyl-1-(4-hydroxy-3-methoxyphenyl)-oct-1-ene-3,5-dione], the melting point (as a rule, the temperature of the solid-liquid transition) is 130 to 132 °C. Further, the Emax in data set [1] amounted to 25%.
As to `COc1cc(/C=C/C(=O)CC(=O)c2ccccc2)ccc1O` [Compound 68, (E)-5-(4-Hydroxy-3-methoxyphenyl)-1-phenyl-pent-4-ene-1,3-dione], the melting point fell in the range of 159 to 161.5 °C. Moreover, in data set [1], the Emax was found to be 14%.
`COc1cc(CCC(=O)CC(=O)c2ccc3ccccc3c2)ccc1O` [Compound 26, 5-(4-Hydroxy-3-methoxyphenyl)-1-(naphthalene-2-yl)-pentane-1,3-dione]: the melting point is 101 to 102 °C. Besides, in [2], the inhibition at 3 µM was found to be 3% and the inhibition at 30 µM was 34%. Besides, in [3], the inhibition at 3 µM worked out at 7% and the inhibition at 30 µM amounted to 40%. In data set [4], the inhibition at 3 µM stood at 2% and the inhibition at 30 µM was 64%. Further, in data set [5], the inhibition at 3 µM came out at 81% and the inhibition at 30 µM was found to be 100%. In addition, the “Decrease in cell viability (%)” value in data set [6] (3 μM) amounted to 3%. The “Decrease in cell viability (%)” value in data set [6] (30 μM) was found to be 10%. In data set [7], the inhibition at 3 µM was determined as 60% and the inhibition at 30 µM was 98%. In data set [8], the inhibition at 3 µM came out at 47%, the inhibition at 30 µM was -31%, the Emax at 3 µM was determined as 66% and the Emax at 30 µM amounted to 248%.
Take `COc1cc(/C=C/C(=O)CC(=O)C(C)C)ccc1O` [Compound 33, (E)-1-(4-Hydroxy-3-methoxyphenyl)-6-methyl-hept-1-ene-3,5-dione]: in data set [1], the Emax was -12%.
On to `COc1cc(/C=C/C(=O)CC(=O)C2CCCC2)ccc1O` [Compound 40, (E)-1-Cyclopentyl-5-(4-hydroxy-3-methoxyphenyl)-pent-4-ene-1,3-dione], for which, in data set [1], the Emax is -82%.
`COc1cc(CCC(=O)CC(=O)C2CCCC2)ccc1O` [Compound 8, 1-Cyclopentyl-5-(4-hydroxy-3-methoxyphenyl)-pentane-1,3-dione]: in data set [1], the Emax was found to be 36%.
As to `COc1cc(CCC(=O)CC(=O)c2ccc(-c3ccccc3)cc2)ccc1O` [Compound 18, 1-(Biphenyl-4-yl)-5-(4-hydroxy-3-methoxyphenyl)-pentane-1,3-dione], the melting point fell in the range of 118 to 119 °C. Besides, in data set [2], the inhibition at 3 µM was 0% and the inhibition at 30 µM turned out to be 7%. Also, in data set [3], the inhibition at 3 µM amounted to 0% and the inhibition at 30 µM is 3%. Moreover, in data set [4], the inhibition at 3 µM came to 13% and the inhibition at 30 µM came to 79%. In data set [5], the inhibition at 3 µM stood at 86% and the inhibition at 30 µM amounted to 99%. The “Decrease in cell viability (%)” value in [6] (3 μM) came to 3%. Further, the “Decrease in cell viability (%)” value in [6] (30 μM) worked out at 15%. Moreover, in data set [7], the inhibition at 3 µM came out at 58% and the inhibition at 30 µM is 94%. In [8], the inhibition at 3 µM stood at 10%, the inhibition at 30 µM is -12%, the Emax at 3 µM came out at 146% and the Emax at 30 µM was determined as 146%.
In the case of `COc1cc(/C=C/C(=O)CC(=O)C(C)(C)C)ccc1O` [Compound 34, (E)-1-(4-Hydroxy-3-methoxylphenyl)-6,6-dimethyl-hept-1-ene-3,5-dione], in data set [1], the Emax is -15%. The inhibition at 3 µM in data set [2] was found to be 11%; in data set [3], 2%; in [5], 72%. Besides, the inhibition at 30 µM in [2] turned out to be 22%; in [3], 43%; in data set [5], 109%. For the same molecule, the “Decrease in cell viability (%)” value in data set [6] (3 μM) is 3%; in data set [6] (30 μM), 5%.
In the case of `COc1cc(/C=C/C(=O)CC(=O)C2(C)CC2)ccc1O` [Compound 38, (E)-5-(4-Hydroxy-3-methoxylphenyl)-1-(1-methylcyclopropyl)-pent-4-ene-1,3-dione], the melting point is 78 to 80 °C. Besides, the Emax in data set [1] is -36%.
With `COc1cc(/C=C/C(=O)C(C)C(=O)c2ccccc2)ccc1O` (centres unmarked) [Compound 43, (E)-5-(4-Hydroxy-3-methoxyphenyl)-2-methyl-1-phenyl-pent-4-ene-1,3-dione], the Emax in [1] was -13%.
